Measured values as given in patent US20220031709A1, “INHIBITION OF MICROSOMAL PROSTAGLANDIN E2 (PGE2) SYNTHASE-1 (MPGES-1)” (University of Kentucky Research Foundation, priority 2020, published 2022).

Key:
JAK = settings: in vitro effect of PGE2; cited from earlier work
[1] = tested on: carrageenan-induced hyperalgesia; test: carrageenan-induced hyperalgesia, pre-treatment (paw withdrawal latency); format: in vivo, wild-type rats; settings: for effect on carrageenan-induced hyperalgesia (PWL): IP 1 h before 1% carrageenan, ceftriaxone 200 mg/kg, cefotetan 100 mg/kg, oxycodone 5 mg/kg
human mPGES-1 = biological target: T1, human mPGES-1 (Homo sapiens, UniProt O14684); test: in vitro activity assay (ELISA) against human mPGES-1; format: biochemical
T1 sequence (O14684 1-152): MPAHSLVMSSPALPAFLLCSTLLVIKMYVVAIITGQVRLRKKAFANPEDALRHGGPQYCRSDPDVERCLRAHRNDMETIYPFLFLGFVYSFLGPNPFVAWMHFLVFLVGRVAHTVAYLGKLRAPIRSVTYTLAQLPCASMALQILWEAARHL
Description: The inhibitory activity of these drugs against human mPGES-1 was determined in vitro using the previously described in vitro activity procedure, an enzyme-linked immunosorbent assay (ELISA). (Ding et al., 2018a; Ding et al., 2018b; Zhou et al., 2017).

[2] = tested on: carrageenan-induced paw edema; test: carrageenan-induced paw edema, pre-treatment (percent increase in paw volume); format: in vivo, wild-type rats; settings: IP 1 h before 1% carrageenan; ceftriaxone 200 mg/kg, cefotetan 100 mg/kg, oxycodone 5 mg/kg
[3] = single IV dose in clinical trial: ceftriaxone 2 g, aztreonam 500 mg, cefotetan 1 g; read-out: Cmax in human plasma; cited from earlier work
[4] = tested on: carrageenan-induced hyperalgesia; test: post-treatment model of carrageenan-induced hyperalgesia; format: in vivo, wild-type rats; settings: for pain relief (PWL), post-treatment: treated IP 23 h after carrageenan, ceftriaxone 100 or 200 mg/kg, cefotetan 50 or 100 mg/kg, oxycodone 5 mg/kg
Description: To better model the clinical treatment of pain, ceftriaxone (FIG. 4) and cefotetan (FIG. 5) were also tested in a post-treatment model of carrageenan-induced hyperalgesia. Rats were first injected with carrageenan to induce the hyperalgesia/pain.

[5] = tested on: CFA-induced knee joint arthritis; test: CFA (adjuvant)-induced knee joint arthritis, arthritis score; format: in vivo, wild-type rats; settings: IP daily on Days 3 to 6 after CFA on Day 0
Description: FIG. 6 illustrates the anti-inflammatory and analgesic effects (in terms of arthritis score) of ceftriaxone and cefotetan on CFA-induced knee joint arthritis in wild-type rats (n=10 for each group). CFA was injected to the knee joint on Day 0. Drug or vehicle (control) was injected (IP) daily on Days 3 to 6. Arthritis score (mean spontaneous pain rating) measured on Days 0 to 6, 8, 10, and 12.
Ceftriaxone and cefotetan were further tested using an adjuvant-induced knee joint arthritis model described by Hammell et al. 2016. Using this one-week knee joint arthritis model, CFA was injected to the knee joint on Day 0 to induce chronic arthritis and associated pain, followed by daily PWL and arthritis score (mean spontaneous pain rating) assessments from Day 0 to Day 7.
Daily treatment with ceftriaxone and cefotetan or vehicle (control group) started on Day 3 (after the arthritis score assessment on that day) and continued until Day 6. There were a total of four doses of the respective treatment from Day 3 to Day 6. […] On Day 3, the arthritis score reached the peak (reflecting the most severe arthritis), which is consistent with previous observations reported for the control group. (Hammell et al., 2016).

[6] = tested on: proinflammatory cytokines (including TNF-α), GLT-1; settings: animal models of inflammation and pain/hyperalgesia; cited from earlier work
SARS-CoV-2 = format: cell-based; settings: cell culture; data not shown
AngII-induced AAA = test: angiotensin (AngII)-induced abdominal aortic aneurysm model; format: in vivo, ApoE-deficient mice; settings: AngII minipump 28 days; ceftriaxone given beginning on Day 5
Description: FIG. 7 illustrates the anti-inflammatory effects of ceftriaxone in terms of maximum aortic diameter.
Ceftriaxone was also tested in treatment of angiotensin (AngII)-induced AAA model. This experiment was performed using ApoE-deficient mice. AngII (with a minipump to continuously release the AngII solution within 28 days) was used to induce AAA in this strain of mice beginning Day 0 for all animals in both control and intervention groups.
The AAA was characterized by the maximum aortic diameter […] detected by the ultrasound method. Ceftriaxone was given beginning on Day 5 for intervention.

[7] = tested on: chronic inflammatory arthritis; settings: placebo-controlled, double-blind study; cited from earlier work
[8] = mouse, in vivo; cited from earlier work

Structure (SMILES) | effect on carrageenan-induced hyperalgesia (PWL) [1] | effect on carrageenan-induced paw edema (percent increase in paw volume) [2] | Cmax [3] | pain relief (PWL), post-treatment [4] | arthritis score (mean spontaneous pain rating) [5] | also measured
N#C/C(=C/c1ccc(O)c(O)c1)C(=O)NCc1ccccc1 [AG490] |  |  |  |  |  | block of PGE2-induced inflammatory hyperalgesia effect (JAK): able to block this in vitro effect of PGE2
CO[C@@]1(NC(=O)C2SC(=C(C(N)=O)C(=O)O)S2)C(=O)N2C(C(=O)O)=C(CSc3nnnn3C)CS[C@@H]21 (stereo partly shown) [cefotetan] | has the desired anti-inflammatory and analgesic effects | has the desired anti-inflammatory and analgesic effects | 440 µM | significantly, and dose-dependently, relieved the pain | mean spontaneous pain rating was reduced | IC50 (human mPGES-1): 13.5 µM
CO/N=C(\C(=O)N[C@@H]1C(=O)N2C(C(=O)O)=C(CSc3nc(=O)c(=O)[nH]n3C)CS[C@H]12)c1csc(N)n1 [ceftriaxone] | completely suppressed carrageenan-induced hyperalgesia | significantly decreased the percent increase in the paw volume | 463 µM | significantly, and dose-dependently, relieved the pain | mean spontaneous pain rating was reduced | effect on proinflammatory cytokines and GLT-1 [6]: effectively attenuated the proinflammatory cytokines (including TNF-α) and reversed the downregulation of GLT-1; cytoprotective activity against SARS-CoV-2 infection (SARS-CoV-2): cytoprotective against SARS-CoV-2 infection; progression of AAA (maximum aortic diameter, ultrasound) (AngII-induced AAA): significantly stopped the progression of AAA, and it even reversed the AAA; clinical efficacy in chronic inflammatory arthritis [7]: efficacious in treatment of chronic inflammatory arthritis
C[C@H]1[C@H](NC(=O)/C(=N\OC(C)(C)C(=O)O)c2csc(N)n2)C(=O)N1S(=O)(=O)O [aztreonam] |  |  | 129 µM |  |  | 
COc1ccc2c3c1O[C@H]1C(=O)CC[C@@]4(O)[C@@H](C2)N(C)CC[C@]314 [oxycodone] | effectively relieved the pain within six hours after oxycodone injection |  |  | significantly relieved the pain |  | pain (PWL) at 23 h ([1]; oxycodone 5 mg/kg IP pre-treatment, 23 h (next day)): still significant pain at 23 h; PWL peak time ([4]; oxycodone 5 mg/kg IP, post-treatment): 1 h
Cc1ccc(-c2cc(C(F)(F)F)nn2-c2ccc(S(N)(=O)=O)cc2)cc1 [celecoxib] |  |  |  |  |  | toxicity in mice [8]: very toxic for stomach and other issues of mice, and bleeding ulcer was observed at gastric mucosa
